In paper PMC6002439, “Inhibitory influence of natural flavonoids on human protein kinase CK2 isoforms: effect of the regulatory subunit” (Molecular and Cellular Biochemistry, 2017):

molecular target: T1, CK2α2β2 (Homo sapiens, UniProt P68400); test: CK2 activity, phosphorylation of yeast P2B protein substrate, CK2α2β2 holoenzyme; format: biochemical; conditions: 10 μM yeast P2B as substrate, 20 µM ATP
T1 construct: GST (N); made in house; host or cells: E. coli BL21(DE3)trxB
Experimental: (§1) CK2α2β2 and CK2α′2β2 holoenzymes were purified as described elsewhere. Briefly, both catalytic subunits were overexpressed as GST fusion proteins, whereas the regulatory subunit was expressed as His-tagged protein. E. coli BL21(DE3)trxB cells (Novagen) harboring the plasmid pGEX-3X::CSNK2A1, pGEX-3X::CSNK2A2 or pET28a::CSNK2B were grown until OD600 = 0.6 at 37 °C. Next, IPTG was added to the final concentration of 0.2 mM; cultures were continued at room temperature for 4 h and then centrifuged at 5000×g for 10 min. Obtained bacterial pellets were mixed prior to lysis. Cells were disrupted by sonication and the supernatant was purified using glutathione-Sepharose (Pharmacia Biotech). Fractions containing the CK2 holoenzyme were pooled and dialysed against 50 mM Tris/HCl buffer pH 7.5 supplemented with 6 mM β-mercaptoethanol and 30% glycerol. The obtained protein preparations were used in enzymatic assays.
(§2) CK2 activity was determined in a standard reaction mixture (40 μL of final volume) containing 20 mM Tris–HCl buffer, pH 7.5, 15 mM MgCl2, 6 mM β-mercaptoethanol, and 20 μM [γ-^32P]ATP (specific radioactivity 500–1000 cpm/pmol) in the presence of 10 μM yeast P2B as substrate. Incubation was performed at 37 °C for 15 min. Afterwards, the reaction was terminated by adding 7 μL of SDS-PAGE loading buffer. Reaction mixtures were resolved in SDS-PAGE followed by Coomassie blue staining and autoradiography. The phosphate incorporation level in the P2B protein was estimated by cutting off the corresponding band and measuring the radioactivity in a scintillation counter (Perkin-Elmer).

T1 sequence (P68400 whole entry): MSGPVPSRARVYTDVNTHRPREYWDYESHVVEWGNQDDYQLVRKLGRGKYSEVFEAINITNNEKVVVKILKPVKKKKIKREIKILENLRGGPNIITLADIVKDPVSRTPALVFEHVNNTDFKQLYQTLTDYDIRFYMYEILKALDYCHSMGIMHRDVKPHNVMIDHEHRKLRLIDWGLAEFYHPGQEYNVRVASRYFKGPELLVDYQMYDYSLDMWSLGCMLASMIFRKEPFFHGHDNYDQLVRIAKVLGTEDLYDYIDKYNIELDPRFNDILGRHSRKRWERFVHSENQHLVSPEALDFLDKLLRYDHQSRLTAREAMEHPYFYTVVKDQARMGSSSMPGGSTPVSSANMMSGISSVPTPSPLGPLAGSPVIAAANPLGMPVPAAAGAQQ
T1 sequence (P67870 whole entry partner): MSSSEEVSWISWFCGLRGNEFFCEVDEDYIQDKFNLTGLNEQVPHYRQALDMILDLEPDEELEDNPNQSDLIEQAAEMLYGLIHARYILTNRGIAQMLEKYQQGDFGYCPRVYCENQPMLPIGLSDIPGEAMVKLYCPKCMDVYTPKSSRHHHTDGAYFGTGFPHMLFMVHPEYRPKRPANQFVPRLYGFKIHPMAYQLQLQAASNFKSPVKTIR

Going from `O=c1c(O[C@@H]2O[C@H](CO)[C@@H](O)[C@H](O)[C@H]2O)c(-c2ccc(O)c(O)c2)oc2cc(O)cc(O)c12` [Compound 8a, quercetin 3-O-glucoside] to `O=c1cc(-c2ccc(O)cc2)oc2cc(OC3OC(CO)C(O)C(O)C3O)c(O)c(O)c12` (stereo not drawn) [Compound 9a, scutellarein 7-O-glucoside], the IC50 falls from 24.5 ± 1.7 µM to 0.4 ± 0.06 µM (61-fold). The second is the more potent here.

Compared with `O=C(O)[C@H]1O[C@@H](Oc2cc3oc(-c4ccc(O)cc4)cc(=O)c3c(O)c2O)[C@H](O)[C@@H](O)[C@@H]1O` [Compound 9, Scutellarin], `COc1c(-c2ccc(O)cc2)oc2cc(O)cc(O)c2c1=O` [Compound 6, isokaempferide] is lower in IC50: greater than 40 µM for the first, 17.5 ± 1.4 µM for the second.

molecular target: T2, CK2α′2β2 (Homo sapiens, UniProt P19784); test: CK2 activity, phosphorylation of yeast P2B protein substrate, CK2α′2β2 holoenzyme; format: biochemical; conditions: 10 μM yeast P2B as substrate, 20 µM ATP
T2 construct: GST (N); made in house; host or cells: E. coli BL21(DE3)trxB
T2 sequence (P19784 whole entry): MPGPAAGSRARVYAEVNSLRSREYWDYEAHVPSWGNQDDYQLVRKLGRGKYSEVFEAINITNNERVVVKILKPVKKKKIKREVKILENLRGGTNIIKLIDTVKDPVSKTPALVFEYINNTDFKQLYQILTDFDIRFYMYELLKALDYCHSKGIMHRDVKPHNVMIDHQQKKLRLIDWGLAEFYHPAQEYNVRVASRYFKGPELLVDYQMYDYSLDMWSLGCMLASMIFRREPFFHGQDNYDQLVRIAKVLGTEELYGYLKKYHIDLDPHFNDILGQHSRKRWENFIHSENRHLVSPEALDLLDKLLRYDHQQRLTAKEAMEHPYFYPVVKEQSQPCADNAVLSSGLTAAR
T2 sequence (P67870 whole entry partner): as the sequence (P67870 whole entry partner) above
Experimental: as §1, §2

Going from `O=c1c(O[C@@H]2O[C@H](CO)[C@@H](O)[C@H](O)[C@H]2O)c(-c2ccc(O)c(O)c2)oc2cc(O)cc(O)c12` [Compound 8a, quercetin 3-O-glucoside] to `O=c1cc(-c2ccc(O)cc2)oc2cc(OC3OC(CO)C(O)C(O)C3O)c(O)c(O)c12` (stereo not drawn) [Compound 9a, scutellarein 7-O-glucoside], the IC50 falls from 31.9 ± 2.6 µM to 6.3 ± 0.5 µM (5.1-fold). The second is the more potent here.

Compared with `O=C(O)[C@H]1O[C@@H](Oc2cc3oc(-c4ccc(O)cc4)cc(=O)c3c(O)c2O)[C@H](O)[C@@H](O)[C@@H]1O` [Compound 9, Scutellarin], `COc1c(-c2ccc(O)cc2)oc2cc(O)cc(O)c2c1=O` [Compound 6, isokaempferide] is lower in IC50: greater than 40 µM for the first, 12.1 ± 1.1 µM for the second. The second is the more potent here.

system: CK2α′; test: CK2 activity, phosphorylation of synthetic peptide […], free CK2α′; format: biochemical, human; conditions: synthetic peptide as substrate; CK2α′ vs CK2α′2β2
Experimental: as §2
(§3) Phosphorylation of the peptide substrate (50 μM) was terminated by the addition of 10% orthophosphoric acid, and aliquots were spotted onto phosphocellulose filters (Whatmann P81). Filters were washed with 1% orthophosphoric acid three times and dried before counting in scintillation counter.

With `O=C(O)[C@H]1O[C@@H](Oc2cc3oc(-c4ccc(O)cc4)cc(=O)c3c(O)c2O)[C@H](O)[C@@H](O)[C@@H]1O` [Compound 9, Scutellarin] the “stronger influence on CK2α′ than on the derived holoenzyme” value was 2.5 fold.

molecular target: T1, CK2α2β2; test: CK2 activity, phosphorylation of synthetic peptide […], CK2α2β2 holoenzyme; format: biochemical; conditions: 50 μM synthetic peptide as substrate, 20 µM ATP
Experimental: as §1, §2, §3

Compared with `O=c1c(O[C@@H]2O[C@H](CO)[C@@H](O)[C@H](O)[C@H]2O)c(-c2ccc(O)c(O)c2)oc2cc(O)cc(O)c12` [Compound 8a, quercetin 3-O-glucoside], `O=c1cc(-c2ccc(O)cc2)oc2cc(OC3OC(CO)C(O)C(O)C3O)c(O)c(O)c12` (stereo not drawn) [Compound 9a, scutellarein 7-O-glucoside] is lower in IC50: greater than 40 µM for the first, 5.4 ± 0.3 µM for the second.

First: O=C(O)[C@H]1O[C@@H](Oc2cc3oc(-c4ccc(O)cc4)cc(=O)c3c(O)c2O)[C@H](O)[C@@H](O)[C@@H]1O [Compound 9, Scutellarin]
Second: COc1c(-c2ccc(O)cc2)oc2cc(O)cc(O)c2c1=O [Compound 6, isokaempferide]
The IC50 of the first is 2.5-fold higher: 19.1 ± 1.7 µM for the first, 7.7 ± 0.4 µM for the second.

molecular target: T2, CK2α′2β2; test: CK2 activity, phosphorylation of synthetic peptide […], CK2α′2β2 holoenzyme; format: biochemical; conditions: 50 μM synthetic peptide as substrate, 20 µM ATP
Experimental: as §1, §2, §3

Going from `O=c1c(O[C@@H]2O[C@H](CO)[C@@H](O)[C@H](O)[C@H]2O)c(-c2ccc(O)c(O)c2)oc2cc(O)cc(O)c12` [Compound 8a, quercetin 3-O-glucoside] to `O=c1cc(-c2ccc(O)cc2)oc2cc(OC3OC(CO)C(O)C(O)C3O)c(O)c(O)c12` (stereo not drawn) [Compound 9a, scutellarein 7-O-glucoside], the IC50 falls from greater than 40 µM to 3.2 ± 0.2 µM. The second is the more potent here.

`O=C(O)[C@H]1O[C@@H](Oc2cc3oc(-c4ccc(O)cc4)cc(=O)c3c(O)c2O)[C@H](O)[C@@H](O)[C@@H]1O` [Compound 9, Scutellarin] and `COc1c(-c2ccc(O)cc2)oc2cc(O)cc(O)c2c1=O` [Compound 6, isokaempferide] are within error of each other in IC50: 9.7 ± 0.8 µM for the first, 10.2 ± 0.7 µM for the second.

system: CK2α; test: not given; design: method as in PMID 28043654; conditions: 10 μM yeast P2B as substrate, 20 µM ATP; ref [23]; cited from earlier work

`O=c1c(O[C@@H]2O[C@H](CO)[C@@H](O)[C@H](O)[C@H]2O)c(-c2ccc(O)c(O)c2)oc2cc(O)cc(O)c12` [Compound 8a, quercetin 3-O-glucoside] and `O=c1cc(-c2ccc(O)cc2)oc2cc(OC3OC(CO)C(O)C(O)C3O)c(O)c(O)c12` (stereo not drawn) [Compound 9a, scutellarein 7-O-glucoside] cannot be ordered by IC50: greater than 40 µM for the first, greater than 40 µM for the second.

Compared with `O=C(O)[C@H]1O[C@@H](Oc2cc3oc(-c4ccc(O)cc4)cc(=O)c3c(O)c2O)[C@H](O)[C@@H](O)[C@@H]1O` [Compound 9, Scutellarin], `COc1c(-c2ccc(O)cc2)oc2cc(O)cc(O)c2c1=O` [Compound 6, isokaempferide] is higher in IC50: 33 ± 2.8 µM for the first, greater than 40 µM for the second.

system: CK2α′; test: not given; design: method as in PMID 28043654; conditions: 10 μM yeast P2B as substrate, 20 µM ATP; ref [23]; cited from earlier work

In order of falling IC50:
1. O=c1c(O[C@@H]2O[C@H](CO)[C@@H](O)[C@H](O)[C@H]2O)c(-c2ccc(O)c(O)c2)oc2cc(O)cc(O)c12 [Compound 8a, quercetin 3-O-glucoside]  19.2 ± 1.5 µM
2. COc1c(-c2ccc(O)cc2)oc2cc(O)cc(O)c2c1=O [Compound 6, isokaempferide]  13.6 ± 0.9 µM
3. O=C(O)[C@H]1O[C@@H](Oc2cc3oc(-c4ccc(O)cc4)cc(=O)c3c(O)c2O)[C@H](O)[C@@H](O)[C@@H]1O [Compound 9, Scutellarin]  4.3 ± 0.3 µM
4. O=c1cc(-c2ccc(O)cc2)oc2cc(OC3OC(CO)C(O)C(O)C3O)c(O)c(O)c12 (stereo not drawn) [Compound 9a, scutellarein 7-O-glucoside]  3.8 ± 0.2 µM

system: CK2α; test: not given; design: method as in PMID 28043654; conditions: 50 μM synthetic peptide as substrate, 20 µM ATP; ref [23]; cited from earlier work

`O=c1c(O[C@@H]2O[C@H](CO)[C@@H](O)[C@H](O)[C@H]2O)c(-c2ccc(O)c(O)c2)oc2cc(O)cc(O)c12` [Compound 8a, quercetin 3-O-glucoside] and `O=c1cc(-c2ccc(O)cc2)oc2cc(OC3OC(CO)C(O)C(O)C3O)c(O)c(O)c12` (stereo not drawn) [Compound 9a, scutellarein 7-O-glucoside] are within error of each other in IC50: 3.7 ± 0.4 µM for the first, 3 ± 0.4 µM for the second.

Going from `O=C(O)[C@H]1O[C@@H](Oc2cc3oc(-c4ccc(O)cc4)cc(=O)c3c(O)c2O)[C@H](O)[C@@H](O)[C@@H]1O` [Compound 9, Scutellarin] to `COc1c(-c2ccc(O)cc2)oc2cc(O)cc(O)c2c1=O` [Compound 6, isokaempferide], the IC50 falls from greater than 40 µM to 11.2 ± 0.9 µM.

system: CK2α′; test: not given; design: method as in PMID 28043654; conditions: 50 μM synthetic peptide as substrate, 20 µM ATP; ref [23]; cited from earlier work

First: O=c1c(O[C@@H]2O[C@H](CO)[C@@H](O)[C@H](O)[C@H]2O)c(-c2ccc(O)c(O)c2)oc2cc(O)cc(O)c12 [Compound 8a, quercetin 3-O-glucoside]
Second: O=c1cc(-c2ccc(O)cc2)oc2cc(OC3OC(CO)C(O)C(O)C3O)c(O)c(O)c12 (stereo not drawn) [Compound 9a, scutellarein 7-O-glucoside]
The IC50 of the first is higher: greater than 40 µM for the first, 4.4 ± 0.5 µM for the second. The second is the more potent here.

First: O=C(O)[C@H]1O[C@@H](Oc2cc3oc(-c4ccc(O)cc4)cc(=O)c3c(O)c2O)[C@H](O)[C@@H](O)[C@@H]1O [Compound 9, Scutellarin]
Second: COc1c(-c2ccc(O)cc2)oc2cc(O)cc(O)c2c1=O [Compound 6, isokaempferide]
The IC50 of the first is 3.3-fold lower: 4.1 ± 0.5 µM for the first, 13.7 ± 1.1 µM for the second. The first is the more potent here.
